From US20060183168A1, “Method for optimizing therapeutic efficacy of nemorubicin” (priority 2002, published 2006)

Assays:
CYP3A4 = biological target: T1, CYP3A4 (Homo sapiens, UniProt P08684); test: Metabolic potential of microsomes from cells expressing single human CYP 450 isoenzymes; assay type: in vitro ADME; conditions: 50 pmol CYP/ml, nemorubicin 20 μM, NADPH 0.5 mM, 37° C., 20 min; CYP3A4, CYP3A5, CYP1A2, CYP2E1, CYP2D61, CYP2C91, CYP2C8
T1 construct: expressed in transfected cells
Description: Microsomes were obtained from cell cultures overexpressing CYP3A4, CYP3A5, CYP1A2, CYP2E1, CYP2D61, CYP2C91 and CYP2C8. Microsomes (50 pmol CYP/ml) were incubated with nemomubicin (20 μM) and NADPH (0.5 mM) in 0.3M Tris (pH 7.4) at 37° C. for 20 min. Nemorubicin metabolism was quantified by HPLC method.
(§1) High-performance liqid chromatographic (HPLC) system consisted of a Waters Model 510 isocratic pump equipped with autosampler. Detection was performed by a Perkin Elmer fluorescence spectrofotometer LS-5 set at 479 and 552 nm excitation and emission wavelength, respectively. Detector was connected to a Shimadzu C-R3A integrator. The cromatographic separation was performed on a Waters Simmetry C8 reverse phase column. The mobile phase was 10 mM KH2P4/Methanol/CH3CN (45:30:25). The flow rate was 1.5 ml/min. Standard curves of fluorescence versus drug concentration for nemorubicin and metabolites were used to calculate drug concentration in the samples.

CYP3A4/5 = test: Antibody studies: inhibition of nemorubicin metabolism by human liver microsomes; assay type: in vitro ADME; conditions: nemorubicin 20 μM, NADPH 0.5 mM, 10 min at 37° C.
Description: Human liver microsomes were preincubated at 25° C. for 5 min. with and without a monoclonal antibody anti-CYP3A4/5 (MAB-3A4 Genetest) in Tris 0.3M (pH 7.4) before adding nemorubicin (20 μM and NADPH (0.5 mM). After 10 min at 37° C., the amount of nemorubicin metabolites was evaluated by a HPLC system.
as §1

T1 sequence (P08684 whole entry): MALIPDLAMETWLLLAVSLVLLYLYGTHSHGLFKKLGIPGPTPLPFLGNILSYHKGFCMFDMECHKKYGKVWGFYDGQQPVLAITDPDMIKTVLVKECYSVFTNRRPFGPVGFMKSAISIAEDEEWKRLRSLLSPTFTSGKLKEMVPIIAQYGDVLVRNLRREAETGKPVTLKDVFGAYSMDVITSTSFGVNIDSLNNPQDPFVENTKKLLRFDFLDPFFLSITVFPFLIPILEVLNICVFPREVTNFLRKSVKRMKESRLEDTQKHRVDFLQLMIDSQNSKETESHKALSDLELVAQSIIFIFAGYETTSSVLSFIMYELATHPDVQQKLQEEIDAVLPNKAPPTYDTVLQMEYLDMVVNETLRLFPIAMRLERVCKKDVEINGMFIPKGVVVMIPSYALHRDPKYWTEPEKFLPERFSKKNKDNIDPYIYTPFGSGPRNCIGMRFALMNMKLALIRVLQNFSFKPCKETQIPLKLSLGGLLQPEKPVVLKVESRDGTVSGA

COc1cccc2c1C(=O)c1c(O)c3c(c(O)c1C2=O)C[C@@](O)(C(=O)CO)C[C@@H]3O[C@H]1C[C@H](N2CCO[C@H](OC)C2)[C@H](O)[C@H](C)O1 [nemorubicin]
metabolism of nemorubicin by microsomes overexpressing single CYP isoenzymes (CYP3A4): Only microsomes from CYP3A4-overexpressing cells were able to metabolize nemorubicin | isoenzyme responsible for nemorubicin metabolism (antibody inhibition) (CYP3A4/5): only the CYP3A4 isoenzyme is responsible for the metabolism of nemorubicin
